According to PubChem BioAssay AID179 (DTP/NCI, 2004):
Several values for one entry are separate records, joined by “and”; a condition that tells them apart may be missing. Equal entries are not always repeated. Activity calls are given as the source filed them.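 The calls were made as follows: active = compounds giving half or more protection of infected cells from virus-caused growth loss, again on retest; inactive = the rest.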

Tested on: CEM cells HIV-1 protection, formazan growth assay
Assay: NCI AIDS Antiviral Assay
Details: for IC50: measured here: growth of uninfected CEM cells
In short: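 Protection of CEM cells against HIV-1 was scored from cell growth (soluble formazan) across five concentrations, with parallel uninfected cells. Lack of protection may reflect toxicity.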

SMILES	EC50	IC50	outcome
C[N+](C)(CCCCCC[N+](C)(C)CC(=O)O)CC(=O)O	> 550 µM	> 550 µM	–
Cc1cccc(NC(=O)NCCOC(=O)OCCNC(=O)Nc2cccc(C)c2C)c1C	> 200 µM	> 200 µM	–
CC(C)(C)OC(=O)[N+](=N)C(=O)C1CCC(=O)N1C(=O)OCc1ccccc1 (centres undefined)	> 200 µM	> 200 µM	–
O=S1(=O)CCC2=CC(C(F)(F)F)=CC(C(F)(F)F)=CN21	> 81.3 µM	0.38 µM	–
C[N+]1(CCCC(O)CC[N+]2(C)CCCC2)CCCC1 (centres undefined)	–	–	inactive
COC(=O)c1nc(-c2ccc(Cl)c(Cl)c2)nc2ccccc12	–	–	inactive
CC(=O)NS(=O)(=O)c1ccc(N=Cc2ccc3c(c2)OCO3)cc1	> 200 µM	> 200 µM	–
CCOc1cc2c(cnc3c4cc(OC)c(OC)cc4ccc23)cc1OC	> 27.5 µM	> 27.5 µM	–
Brc1ccc(C2CC(c3cccc4ccccc34)=Nc3ccccc3S2)cc1 (centres undefined)	> 11.7 µM	> 11.7 µM	–
CC(=O)OCC(OC(C)=O)C(OC(C)=O)C(OC(C)=O)C(C=NN(C(C)=O)S(=O)(=O)c1ccc(/C=C2\NC(=O)NC2=O)cc1)OC(C)=O (centres undefined)	> 200 µM	87.1 µM and 117 µM	–
O=C1/C(=C/c2ccc(Cl)cc2)Oc2cc(O)ccc21	> 200 µM	37.2 µM	–
CC(=O)C1C(=O)C(C(C)=O)C2C3C=CC(C3)C12 (centres undefined)	> 200 µM	74.1 µM	–
O=C1N=NC(=O)N1c1cc(C(F)(F)F)cc(C(F)(F)F)c1	> 200 µM	2.88 µM	–
CCOc1cccc(C=Nc2ccccc2SSc2ccccc2N=Cc2cccc(OCC)c2O)c1O	> 100 µM	5.13 µM	–
CCC(=O)OC1C(OC2C(C)C(OC3CC(C)(OC)C(O)C(C)O3)C(C)C(=O)OC(CC)C(C)(O)C(O)C(C)C(=O)C(C)CC2(C)O)OC(C)CC1N(C)C (centres undefined)	> 200 µM	70.8 µM	–
CC(C)=CCN1CC(C)C(=O)Nc2ccccc21 (centres undefined)	19.5 µM	117 µM	–
COc1ccc2c(c1)OCC1Cc3cc4c(cc3OC21)OCO4 (centres undefined)	–	–	inactive

SMILES	EC50	IC50	outcome
Cc1ccc(NC(=O)C(=O)CC(=O)c2c(C)n([O-])c3ccccc3[n+]2=O)cc1	> 13.2 µM	> 13.2 µM	–
CN1C/C(=C\c2ccco2)c2nc(N)nc(-c3ccco3)c2C1	–	–	inactive
c1ccc2c(c1)oc1cc3c(cc12)ncc1cccn13	> 200 µM	> 200 µM	–
O=C1CCC2(c3ccccc3)Nc3ccncc3N12 (centres undefined)	> 1000 µM	490 µM	–
O=c1[nH]c(=O)n(C2OC(CO)C(O)C2O)cc1OCCc1ccccc1 (centres undefined)	> 200 µM	> 200 µM	–
CN1C(=O)CN2C(Cl)(Cl)C2(c2ccccc2)c2cc(Cl)ccc21 (centres undefined)	> 200 µM	120 µM	–
Cc1cc(NS(=O)(=O)c2ccc(NC(=O)c3cccc4c(N)c5ccccc5nc34)cc2)no1	> 93.3 µM	43.7 µM	–
O=C(N/N=C/c1ccccc1O)c1ccccc1Nc1ccccc1C(=O)N/N=C/c1ccccc1O	> 42.7 µM	1.82 µM	–
Cc1cc(S(=O)(=O)n2cc[nH]c2=O)c(S)cc1Cl	> 200 µM	> 200 µM	–
CCCCn1c2ccccc2c2ccc3c(c21)C(=O)C=CC3=O	> 17.4 µM	> 17.4 µM	–
C=C1CN(S(=O)(=O)c2ccc(C)cc2)CCCN(Cc2ccccc2)CCN(S(=O)(=O)c2ccc(C)cc2)C1	> 200 µM	155 µM	–
Cc1cc(=O)[nH]c(NNC(C#N)c2ccccc2O)n1 (centres undefined)	> 182 µM	0.38 µM	–
Cc1c(NC(=O)Nc2ccc(F)cc2)c(=O)n(-c2ccccc2)n1C	> 200 µM	> 200 µM	–
CCOC(=O)C(=O)CC(=O)C1=C(c2ccccc2OC)CC(c2cccs2)=CC1=O	> 200 µM	32.4 µM	–
CCN(CC)C(=O)N1CN(c2ccccc2)C2(CCN(CCCSc3ccc(F)cc3)CC2)C1=O	> 200 µM	9.77 µM	–
COc1ccc(C(=O)Oc2c(C#N)sc3c2c(=O)n(-c2ccccc2)c(=S)n3-c2ccccc2)cc1	> 200 µM	5.13 µM	–
CCN(CC)CCOc1ccc2c(c1)C(=O)c1cc(OCCN(CC)CC)ccc1-2	> 200 µM	12.3 µM	–
